In EP0336356A2, “Derivatives of tryptophan as CCK antagonists” (ABBOTT LABORATORIES, priority 1988, dated 1989):
Where a name gives a salt, the structure may show the parent alone.

Tests used:
[1] = biological target: T1, CCK receptors (Cavia porcellus, UniProt H0VZC5); test: [125I]BH-CCK8 radioligand binding, guinea pig cerebral cortical membranes; conditions: 30°C for 150 min, read-out: IC₅₀ (nM) [¹²⁵I]-BH-CCK₈ Cortex
T1 construct: cortex and pancreas were removed and rinsed with ice-cold saline; from tissue; host or cells: guinea pig cerebral cortex membranes
T1 sequence (H0VZC5 1-426): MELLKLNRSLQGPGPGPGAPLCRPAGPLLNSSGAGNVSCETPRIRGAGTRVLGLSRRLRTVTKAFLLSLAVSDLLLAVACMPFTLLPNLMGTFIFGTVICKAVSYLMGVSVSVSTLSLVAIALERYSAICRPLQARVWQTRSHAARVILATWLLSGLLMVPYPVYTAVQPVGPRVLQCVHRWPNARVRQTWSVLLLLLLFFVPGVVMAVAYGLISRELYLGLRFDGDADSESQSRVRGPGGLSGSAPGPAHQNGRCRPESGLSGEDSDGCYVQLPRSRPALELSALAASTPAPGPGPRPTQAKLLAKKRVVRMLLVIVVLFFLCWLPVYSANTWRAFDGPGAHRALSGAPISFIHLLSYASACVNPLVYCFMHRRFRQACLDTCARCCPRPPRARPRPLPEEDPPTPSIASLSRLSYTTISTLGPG

[2] = biological target: T2, CCK receptors (Cavia porcellus, UniProt Q63931); test: [125I]BH-CCK8 radioligand binding, guinea pig pancreatic membranes; conditions: 37°C for 30 min, read-out: IC₅₀ (nM) [¹²⁵I]-BH-CCK₈ Pancreas
T2 construct: cortex and pancreas were removed and rinsed with ice-cold saline; from tissue; host or cells: guinea pig pancreas membranes
T2 sequence (Q63931 1-430): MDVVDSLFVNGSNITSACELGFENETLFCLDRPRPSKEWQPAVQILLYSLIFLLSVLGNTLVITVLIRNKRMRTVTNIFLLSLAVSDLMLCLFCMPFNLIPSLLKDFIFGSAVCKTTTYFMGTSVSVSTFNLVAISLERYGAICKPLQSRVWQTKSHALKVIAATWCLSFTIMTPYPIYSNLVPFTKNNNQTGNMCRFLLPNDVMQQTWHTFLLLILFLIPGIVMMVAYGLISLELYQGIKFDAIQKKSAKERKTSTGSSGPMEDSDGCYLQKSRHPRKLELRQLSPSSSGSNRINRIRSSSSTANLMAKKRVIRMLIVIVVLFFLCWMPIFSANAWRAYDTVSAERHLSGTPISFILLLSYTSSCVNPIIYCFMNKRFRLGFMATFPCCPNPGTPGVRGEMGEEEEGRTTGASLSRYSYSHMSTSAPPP

[3] = biological target: T2, CCK receptors; test: Inhibition of CCK8-stimulated amylase release from guinea pig pancreatic acini; format: cell-based; conditions: reference concentration for CCK₈ 3x10⁻¹⁰M, 37°C, 30 min, read-out: IC₅₀ (nM) Inhibition of Amylase Release
Protocol: This assay was performed using the modified protocol of Lin et al., J. Pharmacol Exp. Ther. 236, 729-734, 1986. Guinea pig acini were prepared by the method of Bruzzone et al. (Biochem. J. 226, 621-624, 1985) as follows. Pancreas was dissected out and connective tissues and blood vessels were removed. […] The composition of the KRH buffer was: HEPES, 12.5 mM: NaCl, 118 mM; […] CaCl₂, 1 mM; KH₂PO₄, 1.2 mM; MgSO₄, 1.2 mM; NaHCO₃, 5 mM; glucose, 10 mM, pH 7.4. The buffer was supplemented with 1% MEM vitamins, 1% MEM amino acids and 0.001% aprotinin. The tube was shaken by hand until the suspension appeared homogeneous, usually 5 to 6 min. 5 mL of the KRH, without collagenase and with 0.1% BSA, were added and the tube was centrifuged at 50 x g for 35 sec. The supernatant was discarded and 6 mL of the KRH were added to the cell pellet. […] This wash procedure was repeated once. The cell pellet from the last centrifugation step was then resuspended in 15 mL of KRH containing 0.1% BSA. The contents were filtered through a dual nylon mesh, size 275 and 75 um. The filtrate, containing the acini, were centrifuged at 50 x g for 3 min. The acini were then resuspended in 5 mL of KRH-BSA buffer for 30 min at 37°C, under 100% O₂, with a change of fresh buffer at 15 min. After the 30 min incubation time, the acini were resuspended in 100 volumes of KRH-BSA buffer, containing 3 uM phosphoramidon and 100 µM bestatin. […] The final assay volume was 500 uL. Tubes were vortexed and placed in a 37°C waterbath, under 100% O₂, for 30 min. Afterward, tubes were centrifuged at 10,000 g for 1 min. Amylase activity in the supernatant and the cell pellet were separately determined after appropriate dilutions in 0.1% Triton X-100, 10 mM NaH₂PO₄, pH 7.4 by Abbott Amylase A-gent test using the Abbott Bichromatic Analyzer 200. […]

Row | Structure (SMILES) | IC50 [1] [nM] | IC50 [2] [nM] | IC50 [3] [nM]
1 | CCCCCN(CCCCC)C(=O)C(Cc1c[nH]c2ccc(OCc3ccccc3)cc12)NC(=O)c1cnc2ccccc2c1 (racemic) [Example 53, N-(3′-Quinolylcarbonyl)-R,S-5-benzyloxytryptophan-di-n-pentylamide] | > 10000 |  | 
2 | CCCCCN(CCCCC)C(=O)C(Cc1c[nH]c2ccc(F)cc12)NC(=O)c1cnc2ccccc2c1 (racemic) [Example 63, N-(3′-Quinolylcarbonyl)-R,S-5-fluorotryptophan-di-n-pentylamide] | > 10000 | 62 | 
3 | CCCCCN(CCCCC)C(=O)C(Cc1c[nH]c2ccc(F)cc12)NC(=O)c1cc2ccccc2[nH]1 (racemic) [Example 64, N-(2′-Indolylcarbonyl)-R,S-5-fluorotryptophandi-n-pentylamide] | 10000 | 330 | 
4 | CCCCCN(CCCCC)C(=O)[C@@H](Cc1c[nH]c2ccccc12)NC(=O)c1cc2ccccc2[nH]1 [Example 3, N-(2′-Indolylcarbonyl)-R-Tryptophan-di-n-pentylamide] |  | 51 | 670
5 | CCCCCN(CCCCC)C(=O)[C@@H](Cc1c[nH]c2ccccc12)NC(=O)c1ccc(Cl)cc1 [Example 4, N-(p-Chlorobenzoyl)-R-Tryptophan-di-n-pentylamide] |  | 330 | 
6 | O=C(N[C@H](Cc1c[nH]c2ccccc12)C(=O)NCc1ccccc1)c1cnc2ccccc2c1 [Example 7, N-(3′-Quinolylcarbonyl)-R-Tryptophan-benzylamide] |  |  | < 30000
7 | O=C(N[C@H](Cc1c[nH]c2ccccc12)C(=O)NCc1ccccc1)c1cc2ccccc2[nH]1 [Example 8, N-(2′-Indolylcarbonyl)-R-Tryptophan-benzylamide] | > 10000 | 420 | < 10000
8 | C[C@@H](NC(=O)C(Cc1c[nH]c2ccccc12)NC(=O)c1cc2ccccc2[nH]1)c1ccccc1 (stereo partly drawn) [Example 18, N-(2′-Indolylcarbonyl)-Tryptophan-(1′,R-phenylethyl)amide] | 10000 | 680 | < 30000
9 | C[C@H](NC(=O)C(Cc1c[nH]c2ccccc12)NC(=O)c1cc2ccccc2[nH]1)c1ccccc1 (stereo partly drawn) [Example 19, N-(2′-Indolylcarbonyl)-Tryptophan-(1′,S-phenylethyl)amide] | > 10000 | 1000 | < 10000
10 | COC(=O)[C@@H](NC(=O)[C@@H](Cc1c[nH]c2ccccc12)NC(=O)c1cc2ccccc2[nH]1)c1ccccc1 [Example 25, Methyl N-(2,indolylcarbonyl)-R-Tryptophyl-S-Phenylglycinate] | 10000 | 150 | < 10000
11 | CCOC(=O)CN(Cc1ccccc1)C(=O)[C@@H](Cc1c[nH]c2ccccc12)NC(=O)c1cc2ccccc2[nH]1 [Example 28, Ethyl N-(2′-Indolylcarbonyl)-R-Tryptophyl-(N-benzyl)Glycinate] | 10000 | 280 | < 10000
12 | CCCCCN(CCCCC)C(=O)[C@@H](Cc1c(Sc2ccccc2[N+](=O)[O-])[nH]c2ccccc12)NC(=O)c1cnc2ccccc2c1 [Example 45, N-(3′-Quinolylcarbonyl)-2-(2′-nitrophenylsulfenyl)-R-Tryptophan-di-n-pentylamide] | > 10000 | 1500 | 
13 | O=C(NC(Cc1c[nH]c2ccccc12)C(=O)Nc1cnc2ccccc2c1)c1cnc2ccccc2c1 (stereo not drawn) [Example 46, N-(3′-Quinolylcarbonyl)-Tryptophan-N-(3′-quinolyl)amide] |  |  | < 10000
14 | COC(=O)[C@@H](NC(=O)[C@@H](Cc1c[nH]c2ccccc12)NC(=O)c1cnc2ccccc2c1)c1ccc(O)cc1 [Example 50, Methyl N-(3′-Quinolylcarbonyl)-R-Tryptophyl-S-(p-hydroxyphenyl)glycinate] | > 10000 | 1200 | 
15 | CCCCCN(CCCCC)C(=O)C(Cc1c[nH]c2ccccc12)NC(=O)C=Cc1cccnc1 (stereo not drawn) [Example 54, N-(3′-(3˝-Pyridyl)prop-2-enoyl)-R-Tryptophan-di-n-pentylamide] |  |  | < 100000
16 | CCCCCN(CCCCC)C(=O)[C@@H](Cc1c[nH]c2ccccc12)NC(=O)C1=C(C)c2ccccc2C1 [Example 57, N-(2′-(3′-Methylindenyl)carbonyl)-R-Tryptophan-di-n-pentylamide] | > 10000 | 750 | 
17 | CCCCCN(CCCCC)C(=O)[C@@H](CC1C(=O)Nc2ccccc21)NC(=O)c1cnc2ccccc2c1 (stereo partly drawn) [Example 69, N-(3′-Quinolylcarbonyl)-R-(β-oxyindolyl)Ala-di-n-pentylamide] | 4100 | 10 | 
18 | CCCCCN(CCCCC)C(=O)[C@H]1Cc2c([nH]c3ccccc23)N1C(=O)c1cnc2ccccc2c1 [Example 78, 2,3-Dihydro-1-(3′-quinolylcarbonyl)-pyrrolo[2,3-b]indole-(2R)-dipentylcarboxamide] | > 10000 | 370 | 
19 | CCCCCN(CCCCC)C(=O)[C@@H](Cc1c[nH]c2ccc(O)cc12)NC(=O)c1cnc2ccccc2c1 [Example 84, N^α-(3′-Quinolylcarbonyl)-R-5-hydroxytryptophan-di-n-pentylamide] | < 10000 | 2.6 | 
20 | CCCCCN(CCCCC)C(=O)[C@@H](Cc1c[nH]c2ccccc12)NC(=O)c1ccc2cccc(O)c2n1 [Example 90, N′(8′-Hydroxy-2′-quinolylcarbonyl)-R-Tryptophan-di-n-pentylamide] | > 10000 | 230 | 
21 | CCCCCN(CCCCC)C(=O)[C@@H](Cc1c[nH]c2ccccc12)NC(=O)c1cc(O)c2cccc(O)c2n1 [Example 91, N-(4′,8′-Dihydroxy-2′-quinolylcarbonyl)-R-Tryptophan-di-n-pentylamide] |  | 5 | 
22 | CCCCCN(CCCCC)C(=O)[C@@H](Cc1c[nH]c2ccccc12)NC(=O)c1ccc2cc(O)ccc2c1 [Example 93, N-(6′-Hydroxy-2′-naphthoyl)-R-Tryptophan-di-n-pentylamide] |  |  | 100000
23 | CCCCCN(CCCCC)C(=O)[C@@H](Cc1c[nH]c2ccccc12)NC(=O)c1cc2ccccc2cn1 [Example 96, N-(3′-Isoquinolylcarbonyl)-R-Tryptophan-di-n-pentylamide] |  | 630 | < 100000
24 | CCCCCN(CCCCC)C(=O)[C@@H](Cc1c[nH]c2ccccc12)NC(=O)c1ccc2ncccc2c1 [Example 97, N-(6′-Quinolylcarbonyl)-R-Tryptophan-di-n-pentylamide] |  | 180 | < 100000
25 | CCCCCN(CCCCC)C(=O)[C@@H](Cc1c[nH]c2ccccc12)NC(=O)c1cc2cc(C)ccc2[nH]1 [Example 105, N-(5′-Methyl-2′-indolylcarbonyl)-R-Tryptophan-di-n-pentylamide] | > 10000 | 620 | 
26 | CCCCCN(CCCCC)C(=O)[C@@H](Cc1c[nH]c2ccccc12)NC(=O)c1cc2cc(F)ccc2[nH]1 [Example 106, N-(5′-Fluoro-2′-indolylcarbonyl)-R-Tryptophan-di-n-pentylamide] |  | 82 | 
27 | CCCCCN(CCCCC)C(=O)[C@@H](Cc1c[nH]c2ccccc12)NC(=O)c1cnc2ccccc2c1 [Example 117, N-(3′-Quinolylcarbonyl)-R-Tryptophan-di-n-pentylamide mesylate salt] | 13000 | 17 | 
